Source: US10561704B2, “Compositions and methods for treating neuropsychiatric disorders using an endothelin-B receptor agonist” (MIDWESTERN UNIVERSITY, priority 2013, dated 2020)
Marks after values point to notes of the source that are not given here. *1 amine or outer side, *2 acyl side, *3 side chain or, on linkers, in order; H or OH if unused. Where no end group is shown, it is not given here. Suc = O=C(CCC(=O)[*:2])[*:1]

What was measured:
[1] = system: middle cerebral artery occluded rats; assay: 7 day survival following focal cerebral ischemia (MCAO); assay type: in vivo
Method: FIG. 13: Effect of ETB receptor agonist, IRL-1620, in presence and absence of BQ788 on 7 day survival of rats undergoing either sham surgery or middle cerebral artery occlusion.
Effect of IRL-1620 on 7 day survival of rats following focal cerebral ischemia: Studies were also conducted to determine the effect of stimulating ETB receptors using a selective agonist, IRL-1620, in rats with middle cerebral artery occlusion (MCAO). […] However, MCAO rats in the vehicle treated group presented with 38% mortality by 7th day. […] Preliminary results and supporting literature have prompted the investigation of the mechanism involved in neuroprotective and neurorestorative effects of stimulating ETB receptors in rats with cerebral ischemia.

[2] = system: middle cerebral artery occluded rats; assay: Neurological deficit and motor function post middle cerebral artery occlusion; assay type: in vivo; conditions: for Distance Traveled (cm) / Foot Fault Error (%) / Grip Test (6 point scale) / Neurological Evaluation (6 point scale) / Rota Rod Duration / Vertical Breaks: MCAO rats
Method: Effect of IRL-1620 on neurological deficit following focal cerebral ischemia: In a preliminary study, the effect of selectively activating ETB receptors by IRL-1620 following permanent middle cerebral artery occlusion in rats was determined.

[3] = system: Aβ induced oxidative stress in the rat brain; assay: Oxidative stress markers (MDA, GSH, SOD) in brains of Aβ treated non-diabetic and diabetic rats; assay type: in vivo, Sprague-Dawley rats; conditions: for Brain malondialdehyde (MDA) level: IRL-1620 3 μg i.c.v. daily 14 days
Method: Male Sprague-Dawley rats (Harlan, Indianapolis, Ind.) weighing 280-310 g were allowed to acclimate for at least 4 days before use. Animals were housed in a room with controlled temperature (23±1° C.), humidity (50±10%), and light (6:00 A.M. to 6:00 P.M.). Food and water were available continuously. Animal care and use for experimental procedures were approved by the Institutional Animal Care and Use Committee (IACUC) of Midwestern University. All anesthetic and surgical procedures were in compliance with the guidelines established by the IACUC of Midwestern University.
Amyloid-β (1-40) (Tocris Bioscience, Ellisville, Mo., USA), IRL-1620 [N-Succinyl-[Glu9, Ala11,15] endothelin 1] (American Peptide Co, Inc., Sunnyvale, Calif., USA) and BQ788 (American Peptide Co, Inc., Sunnyvale, Calif., USA) were dissolved in sterile saline and all the solutions were freshly prepared before injections. Ketamine (Butler Animal Health Supply, Dublin, Ohio, USA) was administered at a dose of 100 mg/kg, intraperitoneally (i.p.), and xylazine (Lloyd Laboratories, Shenandoah, Iowa, USA) was administered at a dose of 10 mg/kg, i.p. Rats were anesthetized with ketamine (100 mg/kg) and xylazine (10 mg/kg) and a lateral cerebral ventricle was cannulated by placing the rat in a stereotaxic (David Kopf Instruments, Tujunga, Calif., USA) instrument and fixing the cannula (coordinates: 1.0 mm lateral, 1.5 mm caudal to bregma and 4.0 mm deep from the bone). Cannula (Plastics One, Roanoke, Va., USA) was anchored with dental acrylic to three screws placed in the skull. The animals were allowed to recover from surgery for at least seven days. After 7 days, rats were treated with vehicle, Aβ (1-40), ETB receptor agonist and/or antagonist in the lateral cerebral ventricles using the implanted cannula. Vehicle, Aβ or ETB receptor agonist and antagonist were injected in a volume of 5 μl over a period of 5 minutes. Aβ (1-40) was used because it is highly soluble compared to Aβ (1-42) and induces endothelial dysfunction of both cerebral and systemic blood vessels in addition to memory deficit (Nitta et al., 1994; Niwa et al., 2000; Smith et al., 2004; Weller et al., 1998). Agents were delivered using 10 μl Hamilton syringe and agent treatments were carried out individually using separate 10 μl syringe. IRL-1620 was administered 1 hour after Aβ injection whereas BQ788 was administered 15 minutes prior to IRL-1620 injection. At the end of the experiment, placement of cannula was confirmed by injecting methylene blue dye (5 μl) and observing the site and extent of staining. All experiments were performed on day 15 (Briyal et al., 2011). Water maze testing was performed from day 15 to day 19 after which animals were euthanized. Animals used for oxidative stress measurements were euthanized on day 15 without being subjected to any behavioral testing. Diabetes mellitus type 2 was induced in rats belonging to the diabetic group by administering freshly prepared streptozotocin at the dose of 45 mg/kg, i.p. Streptozotocin was dissolved in 0.01 M sodium citrate buffer of pH 4.3. On day 3, blood glucose was obtained from the rat-tail and tested for hyperglycemia using the SureStep Complete Blood Glucose monitor kit. Rats with blood glucose levels above 11.1 mM were considered diabetic. Diabetic and non-diabetic animals were randomly divided into five groups (6 rats per group) (i) Sham, (ii) Aβ+Vehicle, (iii) Aβ+IRL-1620, (iv) Aβ+BQ788 (v) Aβ+BQ788+IRL-1620. Aβ (1-40) was administered intracerebroventricularly (i.c.v.) (20 μg in 3 equally divided doses i.e. 6.67 μg were injected 3 times for a total of 20 μg dose) on day 1, 7, and 14. Specific ETB receptor agonist, IRL-1620 (3 μg) and specific ETB receptor antagonist, BQ788 (10 μg) were administered i.c.v. daily for 14 days starting from day 1 of Aβ injection. The doses of IRL-1620 and BQ788 were selected on the basis of previous studies conducted in our laboratory (Leonard et al., 2011). […]

[4] = Aβ treated diabetic rats, day 15
[5] = Aβ treated non-diabetic rats, day 15

Molecule | Mortality during 7 day observation [1] | Distance Traveled (cm) ([2]; Baseline) | Foot Fault Error (%) ([2]; Baseline) | Grip Test (6 point scale) ([2]; Baseline) | Neurological Evaluation (6 point scale) ([2]; Baseline) | Rota Rod Duration ([2]; Baseline) [s] | Vertical Breaks ([2]; Baseline) | Distance Traveled (cm) ([2]; Day 1) | Foot Fault Error (%) ([2]; Day 1) | Grip Test (6 point scale) ([2]; Day 1) | Neurological Evaluation (6 point scale) ([2]; Day 1) | Rota Rod Duration ([2]; Day 1) [s] | Vertical Breaks ([2]; Day 1) | Distance Traveled (cm) ([2]; Day 4) | Foot Fault Error (%) ([2]; Day 4) | Grip Test (6 point scale) ([2]; Day 4) | Neurological Evaluation (6 point scale) ([2]; Day 4) | Rota Rod Duration ([2]; Day 4) [s] | Vertical Breaks ([2]; Day 4) | Distance Traveled (cm) ([2]; Day 7) | other results
CCCC[C@@H](NC(=O)[C@@H](Cc1cn(C(=O)OC)c2ccccc12)NC(=O)[C@H](CC(C)(C)C)NC(=O)N1[C@H](C)CCC[C@@H]1C)C(=O)O [BQ788, reference compound] | 25% | 5141 ± 285 | 5.96 ± 1.75 | 3.33 ± 0.33 | 0 ± 0 | 102.00 ± 5.14 | 55.17 ± 3.74 | 1168 ± 417 | 52.12 ± 11.93*^@ % | 0.67 ± 0.33*^@ | 3.00 ± 0.58*^@ | 37.83 ± 20.87 | 5.33 ± 2.47 | 1246 ± 410 | 68.89 ± 12.27*^@ % | 0.33 ± 0.24 | 3.33 ± 0.62*^@ | 37.67 ± 14.92 | 4.33 ± 1.52 | 2280 ± 836 | Foot Fault Error (%) ([2]; Day 7): 75.00 ± 17.67*^@ %; Grip Test (6 point scale) ([2]; Day 7): 1.67 ± 0.62; Neurological Evaluation (6 point scale) ([2]; Day 7): 3.00 ± 0.82*^@; Rota Rod Duration ([2]; Day 7): 49.67 ± 17.56 s; Vertical Breaks ([2]; Day 7): 11.00 ± 3.97; Brain superoxide dismutase (SOD) level ([3]; Aβ treated diabetic rats, pretreated with BQ788 prior to IRL-1620): 16.52±0.45 U/mg protein; Brain superoxide dismutase (SOD) level ([3]; Aβ treated non-diabetic rats, pretreated with BQ788 prior to IRL-1620): 15.32±0.44 U/mg protein; IRL-1620 induced change in MDA levels ([3]; Aβ treated rats, BQ788 administered prior to IRL-1620): blocked; Brain reduced glutathione (GSH) level ([3]; Aβ treated rats, pretreatment with BQ788 before IRL-1620, diabetic status not stated): 81.2±5.49 μg/g wet tissue
Suc-Asp-Glu-Glu-Ala-Val-Tyr-Phe-Ala-His-Leu-Asp-Ile-Ile-Trp (Suc-DEEAVYFAHLDIIW) [IRL-1620] | no mortality | 5073 ± 334 | 4.05 ± 1.31 | 3.86 ± 0.46 | 0 ± 0 | 113.29 ± 8.34 | 61.50 ± 4.94 | 1611 ± 325 | 18.85 ± 6.48 % | 2.71 ± 0.52 | 1.29 ± 0.36 | 78.71 ± 22.59 | 12.75 ± 4.76 | 2898 ± 451 | 14.00 ± 3.66 % | 2.33 ± 0.58 | 0.67 ± 0.22 | 97.33 ± 2.08 | 26.33 ± 2.08 | 3472 ± 732 | Foot Fault Error (%) ([2]; Day 7): 8.28 ± 1.09 %; Grip Test (6 point scale) ([2]; Day 7): 3.33 ± 0.22; Neurological Evaluation (6 point scale) ([2]; Day 7): 0.67 ± 0.22; Rota Rod Duration ([2]; Day 7): 123.67 ± 7.28 s; Vertical Breaks ([2]; Day 7): 34.33 ± 3.78; Neurological and motor function tests ([2]; preliminary study, 24 hours after permanent MCAO, vs vehicle-treated): significant improvement; Brain malondialdehyde (MDA) level [3, 4]: 315.09±5.25 nmol/g wet tissue; Brain reduced glutathione (GSH) level [3, 4]: 166.42±6.63 μg/g wet tissue; Brain superoxide dismutase (SOD) level [3, 4]: 21.4±1.65 U/mg protein; Brain malondialdehyde (MDA) level [3, 5]: 278.47±8.55 nmol/g wet tissue; Brain reduced glutathione (GSH) level [3, 5]: 192.74±6.26 μg/g wet tissue; Brain superoxide dismutase (SOD) level [3, 5]: 22.26±1.16 U/mg protein
